Patent US10004701B2, “Methods and compositions for treating infection” (UNIVERSITY OF ROCHESTER, priority 2012, dated 2018)
Structures can show the parent of a compound that is named as a salt. Where two headings read alike, the source gives them in different places.

Columns and labels:
Experiment in all cases: AK assay 384-well format, Prestwick library screening
[1] = test system: S. aureus strain USA300-0114; assay type: cell-based, Staphylococcus aureus; details: 50 μM final drug concentration; for fold induction at 50 µM: Staphylococcus aureus, USA300, 3 h
E. cloacae = assay type: cell-based, Enterobacter cloacae; details: 50 μM final drug concentration; for fold induction at 50 µM: Enterobacter cloacae, 3 h
E. coli = assay type: cell-based, Escherichia coli; details: 50 μM final drug concentration; for fold induction at 50 µM: Escherichia coli, 3 h
[2] = test system: A. baumannii strain 98-37-09; assay type: cell-based, Acinetobacter baumannii; details: 50 μM final drug concentration; for fold induction at 50 µM: Acinetobacter baumannii, 983709, 3 h
K. pneumoniae = assay type: cell-based, Klebsiella pneumoniae; details: 50 μM final drug concentration; for fold induction at 50 µM: Klebsiella pneumoniae, 3 h
E. faecium = assay type: cell-based, Enterococcus faecium; details: 50 μM final drug concentration; for fold induction at 50 µM: Enterococcus faecium, 3 h
P. aeruginosa = assay type: cell-based, Pseudomonas aeruginosa; details: 50 μM final drug concentration; for fold induction at 50 µM: Pseudomonas aeruginosa, 3 h
[3] = planktonic S. aureus, 384-well, cutoff for positive-scoring molecules 3-fold increase, read-out: AK-based Prestwick Library Screening Results: S. aureus (increase in extracellular AK activity)
[4] = planktonic E. cloacae, 384-well, cutoff for positive-scoring molecules 3-fold increase, read-out: AK-based Prestwick Library Screening Results: E. cloacae (increase in extracellular AK activity)
[5] = planktonic E. coli, 384-well, cutoff for positive-scoring molecules 3-fold increase, read-out: AK-based Prestwick Library Screening Results: E. coli (increase in extracellular AK activity)
[6] = planktonic A. baumannii, 384-well, cutoff for positive-scoring molecules 3-fold increase, read-out: AK-based Prestwick Library Screening Results: A. baumannii (increase in extracellular AK activity)
[7] = planktonic K. pneumoniae, 384-well, cutoff for positive-scoring molecules 3-fold increase, read-out: AK-based Prestwick Library Screening Results: K. pneumoniae (increase in extracellular AK activity)
[8] = planktonic E. faecium, 384-well, cutoff for positive-scoring molecules 3-fold increase, read-out: AK-based Prestwick Library Screening Results: E. faecium (increase in extracellular AK activity)
[9] = planktonic P. aeruginosa, 384-well, cutoff for positive-scoring molecules 3-fold increase, read-out: AK-based Prestwick Library Screening Results: P. aeruginosa (increase in extracellular AK activity)
[10] = planktonic S. aureus, positive cutoff 3-fold increase
[11] = planktonic E. cloacae, positive cutoff 3-fold increase
[12] = planktonic E. coli, positive cutoff 3-fold increase
[13] = planktonic A. baumannii, positive cutoff 3-fold increase
[14] = planktonic K. pneumoniae, positive cutoff 3-fold increase
[15] = planktonic E. faecium, positive cutoff 3-fold increase
[16] = planktonic P. aeruginosa, positive cutoff 3-fold increase
[17] = planktonic S. aureus, positive cutoff 3-fold increase, read-out: AK-based Prestwick library screening result, S. aureus (fold increase in extracellular AK activity)
[18] = planktonic E. cloacae, positive cutoff 3-fold increase, read-out: AK-based Prestwick library screening result, E. cloacae (fold increase in extracellular AK activity)
[19] = planktonic A. baumannii, positive cutoff 3-fold increase, read-out: AK-based Prestwick library screening result, A. baumannii (fold increase in extracellular AK activity)
[20] = planktonic K. pneumoniae, positive cutoff 3-fold increase, read-out: AK-based Prestwick library screening result, K. pneumoniae (fold increase in extracellular AK activity)
[21] = planktonic E. faecium, positive cutoff 3-fold increase, read-out: AK-based Prestwick library screening result, E. faecium (fold increase in extracellular AK activity)
[22] = planktonic P. aeruginosa, positive cutoff 3-fold increase, read-out: AK-based Prestwick library screening result, P. aeruginosa (fold increase in extracellular AK activity)

C[C@]12CCC(=O)C=C1C=C[C@@H]1[C@@H]2CC[C@@]2(C)[C@H]1CC[C@@]2(O)CCC(=O)O [Canrenoic acid potassium salt]
fold induction at 50 µM [1, 3]: 1.1
fold induction at 50 µM (E. cloacae; [4]): 1.2
fold induction at 50 µM (E. coli; [5]): 1.4
fold induction at 50 µM [2, 6]: 1.5
fold induction at 50 µM (K. pneumoniae; [7]): 0.9
fold induction at 50 µM (E. faecium; [8]): 1
fold induction at 50 µM (P. aeruginosa; [9]): 1.3

CNCCC=C1c2ccccc2CCc2ccccc21 [Nortriptyline hydrochloride]
fold induction at 50 µM ([1]; 384-well format, cutoff for positive-scoring molecules 3-fold increase, read-out: AK-based Prestwick Library Screening Results, S. aureus (increase in extracellular AK activity)): 1
fold induction at 50 µM (E. cloacae; 384-well format, cutoff for positive-scoring molecules 3-fold increase, read-out: AK-based Prestwick Library Screening Results, E. cloacae (increase in extracellular AK activity)): 0.9
fold induction at 50 µM (E. coli; 384-well format, cutoff for positive-scoring molecules 3-fold increase, read-out: AK-based Prestwick Library Screening Results, E. coli (increase in extracellular AK activity)): 0.9
fold induction at 50 µM ([2]; 384-well format, cutoff for positive-scoring molecules 3-fold increase, read-out: AK-based Prestwick Library Screening Results, A. baumannii (increase in extracellular AK activity)): 0.9
fold induction at 50 µM (K. pneumoniae; 384-well format, cutoff for positive-scoring molecules 3-fold increase, read-out: AK-based Prestwick Library Screening Results, K. pneumoniae (increase in extracellular AK activity)): 0.7
fold induction at 50 µM (E. faecium; 384-well format, cutoff for positive-scoring molecules 3-fold increase, read-out: AK-based Prestwick Library Screening Results, E. faecium (increase in extracellular AK activity)): 0.9
fold induction at 50 µM (P. aeruginosa; 384-well format, cutoff for positive-scoring molecules 3-fold increase, read-out: AK-based Prestwick Library Screening Results, P. aeruginosa (increase in extracellular AK activity)): 0.8

CCOC(=O)c1ccc(OC(=O)CCCCCN=C(N)N)cc1.CS(=O)(=O)O [Gabexate mesilate]
AK-based Prestwick library screening result, S. aureus (fold increase in extracellular AK activity) [1, 10]: 1.3
AK-based Prestwick library screening result, E. cloacae (fold increase in extracellular AK activity) (E. cloacae; [11]): 1.4
AK-based Prestwick library screening result, E. coli (fold increase in extracellular AK activity) (E. coli; [12]): 1.1
AK-based Prestwick library screening result, A. baumannii (fold increase in extracellular AK activity) [2, 13]: 1.1
AK-based Prestwick library screening result, K. pneumoniae (fold increase in extracellular AK activity) (K. pneumoniae; [14]): 0.9
AK-based Prestwick library screening result, E. faecium (fold increase in extracellular AK activity) (E. faecium; [15]): 1.1
AK-based Prestwick library screening result, P. aeruginosa (fold increase in extracellular AK activity) (P. aeruginosa; [16]): 1.1

O=C([O-])c1ccccc1-c1c2cc(Br)c(=O)cc-2oc2[c]([Hg+])c([O-])c(Br)cc12.[Na+].[Na+].[OH-] [Merbromin]
AK-based Prestwick Library Screening Results, S. aureus (fold increase in extracellular AK activity) ([1]; […]): 0.2
AK-based Prestwick Library Screening Results, E. cloacae (fold increase in extracellular AK activity) (E. cloacae; […]): 1.4
AK-based Prestwick Library Screening Results, E. coli (fold increase in extracellular AK activity) (E. coli; […]): 0.5
AK-based Prestwick Library Screening Results, A. baumannii (fold increase in extracellular AK activity) ([2]; […]): 0.7
AK-based Prestwick Library Screening Results, K. pneumoniae (fold increase in extracellular AK activity) (K. pneumoniae; […]): 0.4
AK-based Prestwick Library Screening Results, E. faecium (fold increase in extracellular AK activity) (E. faecium; […]): 0.6
AK-based Prestwick Library Screening Results, P. aeruginosa (fold increase in extracellular AK activity) (P. aeruginosa; […]): 0.4

CC(C)NCC(O)c1ccc(O)c(O)c1.Cl (single isomer, unassigned; (-)) [(−)-Isoproterenol hydrochloride]
AK-based Prestwick library screening result, S. aureus (fold increase in extracellular AK activity) [1, 10]: 0.9
AK-based Prestwick library screening result, E. cloacae (fold increase in extracellular AK activity) (E. cloacae; [11]): 2.3
AK-based Prestwick library screening result, E. coli (fold increase in extracellular AK activity) (E. coli; [12]): 1.2
AK-based Prestwick library screening result, A. baumannii (fold increase in extracellular AK activity) [2, 13]: 0.9
AK-based Prestwick library screening result, K. pneumoniae (fold increase in extracellular AK activity) (K. pneumoniae; [14]): 1.2
AK-based Prestwick library screening result, E. faecium (fold increase in extracellular AK activity) (E. faecium; [15]): 0.9
AK-based Prestwick library screening result, P. aeruginosa (fold increase in extracellular AK activity) (P. aeruginosa; [16]): 1.1

C[C@]12CC[C@@H]3c4ccc(O)cc4CC[C@H]3[C@@H]1CCC2=O [Estrone]
fold induction at 50 µM ([1]; planktonic, cutoff for positive-scoring molecules 3-fold increase, read-out: AK-based Prestwick Library Screening Results, S. aureus (fold increase in extracellular AK activity)): 0.7
fold induction at 50 µM (E. cloacae; planktonic, cutoff for positive-scoring molecules 3-fold increase, read-out: AK-based Prestwick Library Screening Results, E. cloacae (fold increase in extracellular AK activity)): 1.4
fold induction at 50 µM (E. coli; planktonic, cutoff for positive-scoring molecules 3-fold increase, read-out: AK-based Prestwick Library Screening Results, E. coli (fold increase in extracellular AK activity)): 0.8
fold induction at 50 µM ([2]; planktonic, cutoff for positive-scoring molecules 3-fold increase, read-out: AK-based Prestwick Library Screening Results, A. baumannii (fold increase in extracellular AK activity)): 0.8
fold induction at 50 µM (K. pneumoniae; planktonic, cutoff for positive-scoring molecules 3-fold increase, read-out: AK-based Prestwick Library Screening Results, K. pneumoniae (fold increase in extracellular AK activity)): 0.7
fold induction at 50 µM (E. faecium; planktonic, cutoff for positive-scoring molecules 3-fold increase, read-out: AK-based Prestwick Library Screening Results, E. faecium (fold increase in extracellular AK activity)): 0.8
fold induction at 50 µM (P. aeruginosa; planktonic, cutoff for positive-scoring molecules 3-fold increase, read-out: AK-based Prestwick Library Screening Results, P. aeruginosa (fold increase in extracellular AK activity)): 0.8

COc1ccc2c3c1O[C@H]1C[C@@H](O)C=C[C@@]31CCN(C)C2 [Galanthamine hydrobromide]
fold induction at 50 µM ([1]; planktonic S. aureus, […], read-out: AK-based Prestwick Library Screening Results, S. aureus (increase in extracellular AK activity)): 0.8
fold induction at 50 µM (E. cloacae; planktonic E. cloacae, […], read-out: AK-based Prestwick Library Screening Results, E. cloacae (increase in extracellular AK activity)): 1
fold induction at 50 µM (E. coli; planktonic E. coli, […], read-out: AK-based Prestwick Library Screening Results, E. coli (increase in extracellular AK activity)): 0.9
fold induction at 50 µM ([2]; planktonic A. baumannii, […], read-out: AK-based Prestwick Library Screening Results, A. baumannii (increase in extracellular AK activity)): 0.8
fold induction at 50 µM (K. pneumoniae; planktonic K. pneumoniae, […], read-out: AK-based Prestwick Library Screening Results, K. pneumoniae (increase in extracellular AK activity)): 0.8
fold induction at 50 µM (E. faecium; planktonic E. faecium, […], read-out: AK-based Prestwick Library Screening Results, E. faecium (increase in extracellular AK activity)): 0.9
fold induction at 50 µM (P. aeruginosa; planktonic P. aeruginosa, […], read-out: AK-based Prestwick Library Screening Results, P. aeruginosa (increase in extracellular AK activity)): 0.8

Nc1c2c(nc3ccccc13)CCCC2 [Tacrine hydrochloride hydrate]
fold induction at 50 µM [1, 3]: 0.5
fold induction at 50 µM (E. cloacae; [4]): 0.4
fold induction at 50 µM (E. coli; [5]): 0.5
fold induction at 50 µM [2, 6]: 0.5
fold induction at 50 µM (K. pneumoniae; [7]): 0.4
fold induction at 50 µM (E. faecium; [8]): 0.9
fold induction at 50 µM (P. aeruginosa; [9]): 0.5

CN(C/C=C/c1ccccc1)Cc1cccc2ccccc12 [Naftifine hydrochloride]
fold induction at 50 µM [1, 17]: 0.8
fold induction at 50 µM (E. cloacae; [18]): 1
fold induction at 50 µM (E. coli; planktonic E. coli, positive cutoff 3-fold increase, read-out: AK-based Prestwick library screening result, E. coli (fold increase in extracellular AK activity)): 1
fold induction at 50 µM [2, 19]: 1.1
fold induction at 50 µM (K. pneumoniae; [20]): 0.7
fold induction at 50 µM (E. faecium; [21]): 1
fold induction at 50 µM (P. aeruginosa; [22]): 0.8

COc1cc(-c2ccc(=O)[nH]n2)ccc1OC(F)F [Zardaverine]
fold induction at 50 µM [1, 17]: 0.6
fold induction at 50 µM (E. cloacae; [18]): 0.9
fold induction at 50 µM (E. coli; planktonic E. coli, […], read-out: AK-based Prestwick library screening result, E. coli (fold increase in extracellular AK activity)): 0.6
fold induction at 50 µM [2, 19]: 0.7
fold induction at 50 µM (K. pneumoniae; [20]): 0.7
fold induction at 50 µM (E. faecium; [21]): 1
fold induction at 50 µM (P. aeruginosa; [22]): 0.7
